Values after ≈ are worked out from the molar mass of the structure shown. “Also recorded” adds a separate entry of the source. Marks after values point to notes of the source that are not given here. Numbered stars: 1 amine (or outer) side, 2 acyl side, 3 side chain; on linkers, the order of the positions; unused ones are H or OH. Ends that are not written are not given here. Peptide text beside a SMILES is read from it. Suc = O=C(CCC(=O)[*:2])[*:1]
Assays:
[1] = tested on: abdominal skin of C.R rats; experiment: Rat skin test: intradermal injection of peptide, then intradermal compound 48/80 or vehicle, wheal area; format: in vivo; details: for Mean wheal size, compound 48/80-induced cutaneous reaction: Fenistil Gel 100 mg t.a., Cromoglycate 20 mg/ml i.d., Peptide 2 10 mg/ml i.d.
Protocol: (§1) The hair of the abdominal area of C.R rats was carefully removed with an electric clipper and a depilatory cream. In each animal the abdominal area was divided to six equal zones that were marked by pen. Each zone was either subjected to peptide treatment or served as a control. In the first set of experiments, the peptide was topically applied as follows: 36 μl of peptide solution at the indicated concentration (dissolved in 72% DMSO in saline) was applied on desired abdominal area. In the second set of experiments, the peptide was injected intradermally as follows: 20 μl of peptide solution at different concentrations (dissolved in 10% DMSO in saline) was injected intradermally to an indicated abdominal area using a 27-gauge sterile needle.
(§2) Skin tests were performed 0.5, 1 or 2 hours following application of the peptide. Skin tests were performed by injecting intradermally 20 μl of the allergen (0.1 mg/ml compound 48/80 dissolved in saline) or saline alone, into the center of each marked area on the abdominal skin using a 27-gauge sterile needle. The allergic response was monitored by outlining with a marker the wheals which developed in response to allergen or saline treatment.
(§3) To quantitate the skin test results, the marker signs were transferred onto paper with scotch tape. The areas of the wheals were outlined and calculated by a computerized planimeter (Hewlett-Packard), as previously described (Sussman et al., 1982).
Tables 10-16 presents the mean areas of the wheals, which developed in response to intradermal injection of each of the tested peptides, followed by either compound 48/80 or DDW injection applied after 0.5 or 1 hour. Two doses were tested for each peptide-20 and 200 μg (injection of 20 μl from a stock solution of 1 mg/ml or 10 mg/m respectively).
Skin tests on rats using compound 48/80 as the allergen assessed the ability of the peptides of the present invention to block allergic cutaneous reactions. The abdominal skin of the rats was subjected to peptide (indicated concentrations are listed in Tables 17A-17B below) or vehicle treatment (intradermal injection); the allergic response was induced by intradermal injection of compound 48/80 at various times; and the allergic response was quantified by calculating the area of the resultant allergic wheals.

mice = experiment: IgE-independent mouse conjunctivitis induced by compound 48/80, clinical score; format: in vivo; set-up: scale not given here
Protocol: A murine model was chosen as an in vivo model of IgE-independent human conjunctivitis, induced by a basic secretagogue.
Six groups of mice were topically treated as described in Table 19. The first application was installed 4 times (24 hours, 21 hours, 18 hours and 30 minutes) prior to the second application.
Clinical evaluation of allergic conjunctivitis was conducted in a blind fashion by determining the extent and intensity of lid edema, chemosis, erythema and tearing.

[2] = tested on: purified rat peritoneal mast cells; format: cell-based
Protocol: 37° C. […] Each data point represents the average of duplicate measurements. The spontaneously released histamine was subtracted.
First, the effect of compound 48/80 on exocytosis from intact mast cells was determined. […] Histamine release was determined and is presented as the net secretion that is % of the total cellular histamine following subtraction of the spontaneously released histamine. Half-maximal release was obtained at 0.1 μg/ml while maximal release was obtained at 1-10 μg/ml. Accordingly, in order to analyze the potential of each peptide to block histamine secretion, histamine secretion was induced with 5 μg/ml compound 48/80, a concentration that induces a maximal histamine release, while the cells were incubated in the presence of increasing concentrations of each peptide.
In order to investigate the ability of these peptides to block allergen-induced exocytosis, the peptides were examined for their ability to block compound 48/80 induced histamine secretion from intact mast cells in vitro. Mast cells were incubated with different concentrations of each peptide, followed by induction of histamine secretion by compound 48/80.

[3] = tested on: purified rat peritoneal mast cells; experiment: Histamine secretion from intact mast cells incubated with peptide alone (secretagogue side effect); details: for Secretagogue (histamine secretion following incubation of mast cell with different concentrations of each peptide): no allergen; for histamine secretion from mast cells on incubation with increasing concentrations of peptide alone: no additional allergen
Protocol: Mast cells from the peritoneal cavity of C.R rats were isolated in Tyrode buffer (137 mM NaCl, 2.7 mM KC1, 1 mM MgCl2, 0.4 mM NaH2PO4, 20 mM Hepes, 1.0 mM CaCl2, 5.6 mM glucose, 1 mg/ml BSA, pH 7.2) and purified over a Ficoll gradient. A suspension of washed peritoneal cells was placed over a cushion of 30% Ficoll 400 (Pharmacia Biotech.) in buffered Saline containing 0.1% BSA; and centrifuged at 150O×g for 15 min. The purity of mast cells recovered from the bottom of the tube was >90%, as assessed by toluidine blue staining.
Purified mast cells (duplicated of 10^5 cells/0.5 ml) were incubated in Tyrode buffer with buffer or with desired concentrations of the indicated peptide for 2 h. at. 37° C. Histamine secretion was subsequently stimulated by the indicated concentration of compound 48/80 (Sigma) dissolved in Tyrode buffer. Incubation with compound 48/80 was carried out for 20 mm.in at 37° C. The reaction was terminated by placing the tubes on ice. The cells were sedimented by centrifugation at 150×g for 5 mm.in and the supernatants were collected. The amount of histamine release was determined as previously described (Aridor et al., 1990). Briefly, cell pellets were lysed using 0.1N NaOH and the volume of each sample was adjusted to 0.5 ml by H2O. Histamine content was assayed using the o-phtalaldehyde (OPT) fluorimetric method (Shore et al., 1959). Aliquots of 0.4 ml from the supernatants and cell lysates were incubated with 1.6 ml H20, 0.4 ml 1N NaOH and 0.1 ml of 10 mg/l ml OPT in methanol, for 4 min at room temperature. The reaction was terminated by the addition of 0.2 ml 3N HCl. Samples were centrifuged at 150×g for 5 min. and 0.2 ml samples were transferred to a 96 well plate. The histamine spectrofluorometric assay was run in microplates using a microplates reader (FL-600, Biotek instruments Winooski, Vt., USA). Samples were excited by light at 340 nm and read at 440 nm. Histamine release was calculated as the percentage of total histamine content (supernatant/pellet+supernatant) in each sample. Each data point represents the average of duplicate measurements. The spontaneously released histamine was subtracted.

[4] = tested on: abdominal skin of C.R rats; experiment: Rat skin test: topical application of peptide, then intradermal compound 48/80 or saline, wheal area; format: in vivo
Protocol: as §1, §2, §3

[5] = drug 24, 21, 18 hrs and 30 min before compound 48/80, Cromoglycate 2%, Dexamethazone 0.1%, Peptide 2 2%, no treatment 2.0
[6] = drug before compound 48/80, no treatment 0.8
[7] = drug before compound 48/80, no treatment 2.3
[8] = drug before compound 48/80, no treatment 2.5
[9] = drug before compound 48/80, no treatment 7.6
[10] = intradermal peptide 1 mg/ml, 0.5 hour before, vehicle instead of compound 48/80
[11] = intradermal peptide 1 mg/ml, 1 hour before, vehicle instead of compound 48/80
[12] = intradermal peptide 10 mg/ml, 0.5 hour before, vehicle instead of compound 48/80
[13] = intradermal peptide 10 mg/ml, 1 hour before, vehicle instead of compound 48/80
[14] = drug 2% followed by vehicle, no compound 48/80

Molecule: O=C(O)c1cc(=O)c2c(OCC(O)COc3cccc4oc(C(=O)O)cc(=O)c34)cccc2o1 [Cromoglycate]
- Mean wheal size, compound 48/80-induced cutaneous reaction ([1]; 0.5 hour incubation, Ceterizine 0.01 mg/ml i.d., no treatment 115.5 ± 30.4): 76.2 ± 17.5 mm^2
- Mean wheal size, compound 48/80-induced cutaneous reaction ([1]; 1 hour incubation, no treatment 123.3 ± 33.9): 91.5 ± 12.6 mm^2
- Average Score, Chemosis (mice; [5]): 0.5
- Average Score, Erythema (mice; [6]): 0.5
- Average Score, Tearing (mice; [7]): 1.9
- Average Score, Lid edema (mice; [8]): 1.1
- Average Score, Total score (mice; [9]): 4.0

Molecule: C[C@@H]1C[C@H]2[C@@H]3CCC4=CC(=O)C=C[C@]4(C)[C@@]3(F)[C@@H](O)C[C@]2(C)[C@@]1(O)C(=O)CO [Dexamethazone]
- Average Score, Chemosis (mice; [5]): 0
- Average Score, Erythema (mice; [6]): 0.6
- Average Score, Tearing (mice; [7]): 1.0
- Average Score, Lid edema (mice; [8]): 0
- Average Score, Total score (mice; [9]): 1.6

Molecule: CC(C)C[C@H](NC(=O)CNC(=O)[C@@H](NC(=O)[C@H](CCC(=O)O)NC(=O)[C@H](CCCCN)NC(=O)[C@H](CC(C)C)NC(=O)[C@H](CC(N)=O)NC(=O)[C@H](CC(N)=O)NC(=O)[C@H](CCCCN)NC(=O)[C@@H]1CCCN1C(=O)[C@H](C)NC(=O)[C@H](CC(C)C)NC(=O)[C@H](CC(C)C)NC(=O)[C@H](C)NC(=O)[C@H](CC(C)C)NC(=O)[C@H](CC(C)C)NC(=O)[C@@H](NC(=O)[C@H](C)NC(=O)[C@@H]1CCCN1C(=O)[C@H](CC(C)C)NC(=O)[C@H](CC(C)C)NC(=O)[C@H](C)NC(=O)[C@@H](NC(=O)[C@H](C)NC(=O)[C@H](C)NC(=O)CCC(=O)O)C(C)C)C(C)C)C(C)C)C(=O)N[C@@H](Cc1ccc(O)cc1)C(=O)O [WALL016] (Suc-AAVALLPAVLLALLAPKNNLKEVGLY-OH; C-terminus assumed)
- IC50, compound 48/80 induced histamine secretion [2]: 295 µg/mL (≈ 106 µM)
- maximal inhibition of compound 48/80 induced histamine secretion ([2]; 600 μg/ml peptide, compound 48/80 concentration not given): 79.6%
- Inhibitor (extent of inhibition of histamine secretion from mast cells) ([2]; Table 9, incubation with different concentrations of each peptide, then induction of the allergic reaction): ++ (++ Moderate inhibitor (50%-70% inhibition))
- block of compound 48/80 induced allergic reaction in vivo, rat skin ([1]; intradermal peptide): effectively block the allergic response in vivo
- Mean Wheal Area ± STD, Compound 48/80 ([1]; intradermal peptide 1 mg/ml, 0.5 hour before allergic induction): 104.2 ± 21.6 (n = 5) mm^2
- Mean Wheal Area ± STD, Vehicle [1, 10]: 66.4 ± 12.5 (n = 5) mm^2
- Mean Wheal Area ± STD, Compound 48/80 ([1]; intradermal peptide 1 mg/ml, 1 hour before allergic induction): 96.3 ± 15.6 (n = 6) mm^2
- Mean Wheal Area ± STD, Vehicle [1, 11]: 62.8 ± 14.6 (n = 6) mm^2
- Mean Wheal Area ± STD, Compound 48/80 ([1]; intradermal peptide 10 mg/ml, 0.5 hour before allergic induction): 81.2 ± 7.9 (n = 5) mm^2
- Mean Wheal Area ± STD, Vehicle [1, 12]: 72.6 ± 16.2 (n = 5) mm^2
- Mean Wheal Area ± STD, Compound 48/80 ([1]; intradermal peptide 10 mg/ml, 1 hour before allergic induction): 82.1 ± 27.2 (n = 6) mm^2
- Mean Wheal Area ± STD, Vehicle [1, 13]: 69.3 ± 17.0 (n = 6) mm^2
- reduction of compound 48/80 induced allergic reaction ([1]; intradermal peptide 0.5 or 1 hour before allergic induction): significant inhibition
- Secretagogue (histamine secretion following incubation of mast cell with different concentrations of each peptide) ([3]; Table 9, peptide alone): −
- histamine secretion from mast cells on incubation with increasing concentrations of peptide alone [3]: did not result in histamine secretion
- basal level of histamine secretion compared to control cells ([3]; peptide alone, increasing concentrations): inhibition of the basal histamine secretion

Molecule: AAVALLPAVLLALLAPKNNLKECGLY [Peptide 2]
- IC50, compound 48/80 induced histamine secretion [2]: 400 µg/mL
- stimulatory effect of topical peptide by itself on the cutaneous allergic reactions ([4]; peptide and saline injection, without compound 48/80): no stimulatory effect
- Net wheal area, effect of peptide (alone) ([4]; topical 1 mg/ml, Animal A, 1 hour after application): −8.8 mm2
- Net wheal area, effect of peptide (alone) ([4]; topical 1 mg/ml, Animal B (footnote: 1 hour after application)): −5.5 mm2
- Net wheal area, effect of peptide (alone) ([4]; topical 10 mg/ml, Animal A, 1 hour after application): −8.3 mm2
- Net wheal area, effect of peptide (alone) ([4]; topical 10 mg/ml, Animal B (footnote: 1 hour after application)): −6.0 mm2
- Wheal area, saline injection (control) ([4]; topical peptide 1 mg/ml, animal a, skin test 1 hour after application): 84.64^a mm^2
- Wheal area, saline injection (control) ([4]; topical peptide 1 mg/ml, animal b, 2 hours after application): 66.91^b mm^2
- Wheal area, saline injection (control) ([4]; topical peptide 10 mg/ml, animal a, 1 hour after application): 85.24^a mm^2
- Wheal area, saline injection (control) ([4]; topical peptide 10 mg/ml, animal b, 2 hours after application): 66.40^b mm^2
- Mean Wheal Area ± STD, Vehicle ([1]; Tables 17A-B, column head '0.1' (no unit), 0.5 hr prior to allergy induction): 57.0 ± 8.3 (n = 12) mm^2
- Mean Wheal Area ± STD, Vehicle ([1]; Tables 17A-B, column head '0.1' (no unit), 1 hour prior): 56.2 ± 11.3 (n = 5) mm^2
- Mean Wheal Area ± STD, Vehicle ([1]; Tables 17A-B, column head '1' (no unit), 0.5 hr prior): 61.7 ± 13.5 (n = 19) mm^2
- Mean Wheal Area ± STD, Vehicle ([1]; Tables 17A-B, column head '1' (no unit), 1 hour prior): 50.6 ± 7.4 (n = 5) mm^2
- Net wheal area, effect of peptide (alone) ([1]; intradermal 1 mg/ml, Animal A, 0.5 hour): 3.29 mm2
- Net wheal area, effect of peptide (alone) ([1]; intradermal 1 mg/ml, Animal B, 1 hour): 7.0 mm2
- Net wheal area, effect of peptide (alone) ([1]; intradermal 1 mg/ml, Animal C, 2 hours): 16.5 mm2
- Net wheal area, effect of peptide (alone) ([1]; intradermal 10 mg/ml, Animal A, 0.5 hour): −1.68 mm2
- Net wheal area, effect of peptide (alone) ([1]; intradermal 10 mg/ml, Animal B, 1 hour): −9.9 mm2
- Net wheal area, effect of peptide (alone) ([1]; intradermal 10 mg/ml, Animal C, 2 hours): −3.0 mm2
- Mean Wheal Area ± STD, Vehicle [1, 10]: 60.7 ± 19.3 (n = 7) mm^2
- Mean Wheal Area ± STD, Vehicle [1, 11]: 52.3 ± 11.1 (n = 5) mm^2
- Wheal area, saline injection (control) ([1]; intradermal peptide 1 mg/ml, animal a, 0.5 hour after injection): 65.78^a mm2
- Wheal area, saline injection (control) ([1]; intradermal peptide 1 mg/ml, animal b, 1 hour): 119.2^b mm2
- Wheal area, saline injection (control) ([1]; intradermal peptide 1 mg/ml, animal c, 2 hours): 77.31^c mm2
- Mean Wheal Area ± STD, Vehicle [1, 12]: 54.8 ± 11 (n = 5) mm^2
- Mean Wheal Area ± STD, Vehicle [1, 13]: 50.6 ± 7.411 (n = 5) mm^2
- Wheal area, saline injection (control) ([1]; intradermal peptide 10 mg/ml, animal a, 0.5 hour): 60.81^a mm2
- Wheal area, saline injection (control) ([1]; intradermal peptide 10 mg/ml, animal b, 1 hour): 102.3^b mm2
- Wheal area, saline injection (control) ([1]; intradermal peptide 10 mg/ml, animal c, 2 hours): 57.81^c mm2
- effect of intradermal injection of peptide alone on the cutaneous allergic reactions ([1]; without compound 48/80): hardly any stimulatory effect; also recorded: no cutaneous allergic reaction
- Average Score, Erythema (mice; [14]): 0.6
- Average Score, Lid edema (mice; [14]): 0
- Average Score, Tearing (mice; [14]): 0.2
- Average Score, Total score (mice; [14]): 0.8
- Average Score, Chemosis (mice; drug 2% followed by vehicle, no compound 48/80 (Table 19 group 2)): 0
- Secretagogue (histamine secretion following incubation of mast cell with different concentrations of each peptide) ([3]; Table 1, peptide alone): −

Molecule: AAVALLPAVLLALLAPKNNLKEVGLY [WALL007]
- IC50, compound 48/80 induced histamine secretion [2]: 230 µg/mL
- Mean Wheal Area ± STD, Vehicle [1, 10]: 76.5 ± 14.1 (n = 12) mm^2
- Mean Wheal Area ± STD, Vehicle [1, 11]: 62.4 ± 11.1 (n = 15) mm^2
- Mean Wheal Area ± STD, Vehicle [1, 12]: 74.5 ± 26.4 (n = 12) mm^2
- Mean Wheal Area ± STD, Vehicle [1, 13]: 65.9 ± 10.0 (n = 11) mm^2
- Secretagogue (histamine secretion following incubation of mast cell with different concentrations of each peptide) ([3]; Table 9, peptide alone): −
- histamine secretion from mast cells on incubation with increasing concentrations of peptide alone [3]: did not result in histamine secretion
